{
  "source": "patent US20130289056A1",
  "about": "“METHODS OF ADMINISTERING AN EGFR INHIBITOR” (Boehringer Ingelheim International GmbH, priority 2010, published 2013)",
  "key": {"[1]": {"assay": "Phase I two-way crossover trial: effect of ritonavir on pharmacokinetics of BIBW 2992"}, "CYP3A4": {"molecular_target": "T1, CYP3A4 (Homo sapiens, UniProt P08684)", "T1 construct": "host or cells: healthy volunteers (in vivo)", "T1 sequence (P08684 whole entry)": "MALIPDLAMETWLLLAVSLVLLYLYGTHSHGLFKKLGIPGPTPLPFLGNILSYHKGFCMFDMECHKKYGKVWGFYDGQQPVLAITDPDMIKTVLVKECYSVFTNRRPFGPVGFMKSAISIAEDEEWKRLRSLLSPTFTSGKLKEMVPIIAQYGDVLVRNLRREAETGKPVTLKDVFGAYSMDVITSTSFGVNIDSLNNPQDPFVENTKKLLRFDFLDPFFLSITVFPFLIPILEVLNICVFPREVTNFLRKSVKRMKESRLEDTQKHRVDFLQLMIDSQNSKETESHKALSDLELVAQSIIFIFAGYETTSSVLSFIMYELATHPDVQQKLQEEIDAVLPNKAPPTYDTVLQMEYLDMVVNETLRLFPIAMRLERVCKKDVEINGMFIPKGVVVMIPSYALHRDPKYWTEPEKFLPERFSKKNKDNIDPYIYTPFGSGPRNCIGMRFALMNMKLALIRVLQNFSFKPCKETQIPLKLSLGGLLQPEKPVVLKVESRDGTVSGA", "assay": "CYP3A4-catalysed metabolism of BIBW 2992 in vivo (previous studies)"}, "[2]": {"conditions": "in vivo; cited from earlier work"}, "CaCo-2 cell layers": {"tested_on": "CaCo-2 cell layers", "assay": "Passive permeability through CaCo-2 cell layers", "type": "in vitro ADME", "from_the_text": "(§1) Passive Permeability through CaCo-2 Cell Layers and P-gp Transport Profiling: […]"}, "[3]": {"molecular_target": "P-glycoprotein (MDR1, ABCB1) (Homo sapiens, UniProt P08183)", "sequence (P08183 whole entry)": "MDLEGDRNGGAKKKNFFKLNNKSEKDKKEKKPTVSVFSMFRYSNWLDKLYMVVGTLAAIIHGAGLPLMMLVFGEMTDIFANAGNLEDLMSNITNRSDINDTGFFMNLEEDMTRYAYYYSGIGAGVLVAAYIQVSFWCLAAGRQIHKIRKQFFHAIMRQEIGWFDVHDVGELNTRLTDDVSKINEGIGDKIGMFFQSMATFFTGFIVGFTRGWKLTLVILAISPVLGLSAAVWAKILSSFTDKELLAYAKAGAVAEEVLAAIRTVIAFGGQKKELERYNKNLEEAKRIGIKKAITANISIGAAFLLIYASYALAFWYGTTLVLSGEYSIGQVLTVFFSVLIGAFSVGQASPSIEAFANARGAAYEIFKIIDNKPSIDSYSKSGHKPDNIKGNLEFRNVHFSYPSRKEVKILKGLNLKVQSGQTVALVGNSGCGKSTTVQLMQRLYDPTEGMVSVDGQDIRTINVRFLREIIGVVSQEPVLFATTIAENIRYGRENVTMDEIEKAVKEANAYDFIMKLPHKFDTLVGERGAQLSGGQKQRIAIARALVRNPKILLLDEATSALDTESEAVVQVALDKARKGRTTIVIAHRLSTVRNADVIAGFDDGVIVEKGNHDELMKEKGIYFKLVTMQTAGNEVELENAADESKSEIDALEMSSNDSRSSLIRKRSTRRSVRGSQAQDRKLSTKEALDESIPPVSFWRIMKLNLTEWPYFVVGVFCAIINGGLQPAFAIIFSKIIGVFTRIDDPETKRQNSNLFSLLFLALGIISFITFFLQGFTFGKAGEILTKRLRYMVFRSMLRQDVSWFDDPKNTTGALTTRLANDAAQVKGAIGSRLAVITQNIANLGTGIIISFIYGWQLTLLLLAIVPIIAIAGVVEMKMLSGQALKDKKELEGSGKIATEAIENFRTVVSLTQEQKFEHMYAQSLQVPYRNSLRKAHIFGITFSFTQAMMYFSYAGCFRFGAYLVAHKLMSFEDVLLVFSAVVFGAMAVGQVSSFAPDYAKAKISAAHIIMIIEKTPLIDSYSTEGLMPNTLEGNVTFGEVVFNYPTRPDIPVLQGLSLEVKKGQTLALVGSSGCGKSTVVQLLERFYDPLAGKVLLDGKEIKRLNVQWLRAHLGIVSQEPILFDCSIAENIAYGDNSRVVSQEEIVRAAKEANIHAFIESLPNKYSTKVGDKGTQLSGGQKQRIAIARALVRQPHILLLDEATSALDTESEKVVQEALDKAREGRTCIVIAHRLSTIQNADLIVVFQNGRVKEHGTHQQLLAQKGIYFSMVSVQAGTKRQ", "assay": "P-gp transport profiling (substrate)", "type": "in vitro ADME", "conditions": "human, Caco-2 cell layers; estimated", "from_the_text": "as §1"}, "[4]": {"molecular_target": "T2, P-glycoprotein (a.k.a. MDR1, ABCB1) (Homo sapiens, UniProt P08183)", "T2 sequence (P08183 whole entry)": "as above", "assay": "P-gp transport profiling (substrate)", "type": "in vitro ADME", "conditions": "in vitro", "from_the_text": "as §1"}, "[5]": {"molecular_target": "T2, P-glycoprotein (a.k.a. MDR1, ABCB1)", "assay": "Inhibition of P-gp by BIBW 2992", "type": "in vitro ADME", "conditions": "mean of two independent experiments; read-out: estimated Ki as inhibitor of P-gp", "from_the_text": "as §1"}},
  "data": [
    {"molecule": "CN(C)C/C=C/C(=O)Nc1cc2c(Nc3ccc(F)c(Cl)c3)ncnc2cc1O[C@H]1CCOC1.O=C(O)/C=C\\C(=O)O.O=C(O)/C=C\\C(=O)O", "note": "[BIBW 2992, 4-[(3-chloro-4-fluorophenyl)amino]-6-{[4-(N,N-dimethylamino)-1-oxo-2-buten-1-yl]amino}-7-((S)-tetrahydrofuran-3-yloxy)-quinazoline]", "values": [
      {"measurement": "AUC0-∞ increase compared with BIBW 2992 given alone", "setting": "[1]; BIBW 2992 20 mg oral with ritonavir 200 mg twice daily, healthy male volunteers, 90% CI 133.7%, 162.9%", "result": 47.6, "unit": "%"},
      {"measurement": "AUC0-tz increase compared with BIBW 2992 given alone", "setting": "[1]; BIBW 2992 20 mg oral with ritonavir 200 mg twice daily, healthy male volunteers, 90% CI 134.5%, 165.1%", "result": 49.0, "unit": "%"},
      {"measurement": "Tmax", "setting": "[1]; male, human, in vivo, oral, 20 mg", "result": 4, "unit": "h"},
      {"measurement": "terminal half-life, effect of ritonavir cotreatment", "setting": "[1]; with ritonavir 200 mg bid vs alone", "result": "unchanged"},
      {"measurement": "CYP3A4-dependent N-demethylation", "setting": "CYP3A4; healthy volunteers", "result": "too low to be quantitatively detected"},
      {"measurement": "role of CYP3A4 enzyme-catalysed metabolic reactions for metabolism", "setting": "CYP3A4; in vivo", "result": "subordinate role"},
      {"measurement": "dose dependence of exposure", "setting": "[2]", "result": "more than dose-proportional increase in exposure"},
      {"measurement": "passive permeability", "setting": "CaCo-2 cell layers", "result": "high"},
      {"measurement": "Km", "setting": "[3]", "result": "10 to 30", "unit": "µM"},
      {"measurement": "P-gp substrate status", "setting": "[4]", "result": "substrate of P-gp"},
      {"measurement": "Ki", "setting": "[5]", "result": 3.4, "unit": "µM"}
    ]}
  ]
}
